Test results as given in patent publication US12590062B2, “PD-1/PD-L1 inhibitors” (Gilead Sciences, Inc., priority 2017, dated 2026).

Legend:
[1] = molecular target: T1, PD-1/PD-L1 interaction (Homo sapiens, UniProt Q9NZQ7); assay: PD-1/PD-L1 NFAT reporter co-culture assay; type: cell-based; conditions: Jurkat PD-1 NFAT-luciferase cells co-cultured with aAPC-PD-L1 CHO cells, 6 hrs at 37° C.; read-out: EC50 NFAT Luciferase
T1 construct: expressed in transfected cells; host or cells: CHO cells (aAPC-PD-L1) co-cultured with Jurkat cells overexpressing PD-1 and an NFAT-luciferase reporter
Summary of the method: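 Jurkat cells overexpressing PD-1 with NFAT-luciferase mixed with compounds and plated onto CHO aAPCs expressing anti-CD3 and PD-L1, RPMI with 2% FBS. Co-culture 6 h at 37 °C; luminescence read with ONE-Glo. EC50 from four-parameter fit.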

[2] = molecular target: T2, PD-L1 (Homo sapiens, UniProt Q9NZQ7); assay: PD-L1/PD-L1 dimerization biochemical protein-protein interaction assay (ALPHA); type: binding; conditions: compound-induced PD-L1 dimerization, head prints '1 nM' (0.5 nM His-tagged PD-L1 and 0.5 nM FLAG-tagged PD-L1), read-out: AC50 PDL1 Dimer Alpha 1 nM
T2 construct: determine if they can specifically dimerize the extracellular domains of PD-L1
Experimental: PD-L1/PD-L1 Dimerization Biochemical Protein-Protein Interaction Assay:
Compounds were tested in biochemical protein-protein interaction assays to determine if they can specifically dimerize the extracellular domains of PD-L1. Dimerization of the proteins (His-tagged PD-L1 and FLAG-tagged PD-L1) is measured using a bead based Amplified Luminescent Proximity Homogeneous Assay (ALPHA) platform. […] Assays are performed in 25 mM Hepes (pH 7.4), 150 mM NaCl, 3.4 mM EDTA, 0.005% Tween 20, and 0.01% BSA. Final protein concentration in the assays were 0.5 nM (His tagged PD-L) and 0.5 nM (FLAG tagged PD-L1). After an assay reaction time of 2 hours at 25° C., 20 μg/mL (final assay concentration) ALPHA assay acceptor beads (anti-His coated) were added and incubated for 60 minutes at 25° C. Binding was measured following a final 60 minute incubation with 40 μg/mL (final assay concentration) ALPHA assay donor beads (anti-FLAG coated). AC50 values were calculated from the fit of the dose-response curves to a four-parameter equation (Table 3).

[3] = molecular target: PD-1/PD-L1 (Homo sapiens, UniProt Q9NZQ7); assay: PD-1/PD-L1 biochemical protein-protein interaction assay (ALPHA); type: binding; conditions: 0.3 nM His tagged PD-L1, 2.5 nM biotinylated Fc-PD-1, 60 minutes at 25° C., read-out: IC50 PD-L1-PD-1 Alpha IC50-mono PD-L1-fcP-D1
Summary of the method: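 Bead proximity read-out: compound-driven loss of ALPHA signal between anti-His acceptor and streptavidin donor beads (20 μg/mL acceptor). Proteins: 0.3 nM His-PD-L1, 2.5 nM biotin-Fc-PD-1, final. 60 min, 25° C, Hepes pH 7.4 buffer. IC50 via four-parameter dose-response fit.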

T2 sequence (Q9NZQ7 19-238 limits assumed): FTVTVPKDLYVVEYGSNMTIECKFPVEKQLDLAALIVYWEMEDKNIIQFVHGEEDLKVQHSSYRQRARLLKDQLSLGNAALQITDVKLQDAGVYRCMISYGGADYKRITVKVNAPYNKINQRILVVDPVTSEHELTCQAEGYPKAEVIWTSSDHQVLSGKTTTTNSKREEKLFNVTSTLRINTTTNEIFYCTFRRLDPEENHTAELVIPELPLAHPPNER
T2 sequence (Q9NZQ7 19-238 limits assumed): as above
Sequence of PD-1/PD-L1 (Q9NZQ7 19-238 limits assumed): as above
T1 sequence (Q9NZQ7 19-290): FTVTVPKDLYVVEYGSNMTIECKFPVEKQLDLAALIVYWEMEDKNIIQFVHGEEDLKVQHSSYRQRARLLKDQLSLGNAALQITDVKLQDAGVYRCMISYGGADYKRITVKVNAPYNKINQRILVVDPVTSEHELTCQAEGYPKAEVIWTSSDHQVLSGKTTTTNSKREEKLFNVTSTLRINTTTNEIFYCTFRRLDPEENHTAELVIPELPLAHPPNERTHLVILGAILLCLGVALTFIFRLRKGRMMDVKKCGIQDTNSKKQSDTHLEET

SMILES | EC50 [1] | AC50 [2] | IC50 [3]
Cc1c(COc2nc(OCCCC#N)c(CNC[C@@H](O)CC(=O)O)cc2Br)cccc1-c1cccc(COc2nc(OCCCC#N)c(CNC[C@@H](O)CC(=O)O)cc2Br)c1C [Example 144, (3S,3′S)-4,4′-((((((2,2′-dimethyl-[1,1′-biphenyl]-3,3′-diyl)bis(methylene))bis(oxy))bis(5-bromo-2-(3-cyanopropoxy)pyridine-6,3-diyl))bis(methylene))bis(azanediyl))bis(3-hydroxybutanoic acid)] | 201 nM | 206 nM | 
COc1nc(OCc2cccc(-c3cccc(COc4nc(OC)c(CNC[C@H](O)CC(=O)O)cc4Br)c3Cl)c2Cl)c(Br)cc1CNC[C@H](O)CC(=O)O [Example 191, (3R,3′R)-4,4′-((((((2,2′-Dichloro-[1,1′-biphenyl]-3,3′-diyl)bis(methylene))bis(oxy))bis(5-bromo-2-methoxypyridine-6,3-diyl))bis(methylene))bis(azanediyl))bis(3-hydroxybutanoic acid)] | 60 nM | ≥ 10000 nM | 
N#Cc1cncc(COc2nc(OCc3cccc(-c4cccc(COc5nc(OCc6cncc(C#N)c6)c(CNC[C@@H](O)CC(=O)O)cc5Br)c4Cl)c3Cl)c(Br)cc2CNC[C@@H](O)CC(=O)O)c1 [Example 193, (3S,3′S)-4,4′-((((((2,2′-Dichloro-[1,1′-biphenyl]-3,3′-diyl)bis(methylene))bis(oxy))bis(5-bromo-2-((5-cyanopyridin-3-yl)methoxy)pyridine-6,3-diyl))bis(methylene))bis(azanediyl))bis(3-hydroxybutanoic acid)] | 99 nM | 132 nM | 
Cc1c(COc2cc(OCc3cc(C#N)ccn3)c(CNC[C@@H](O)CC(=O)O)cc2Cl)cccc1-c1cccc(COc2cc(OCc3cc(C#N)ccn3)c(CNC[C@@H](O)CC(=O)O)cc2Cl)c1C [Example 225, (3S,3′S)-4,4′-((((((2,2′-dimethyl-[1,1′-biphenyl]-3,3′-diyl)bis(methylene))bis(oxy))bis(5-chloro-2-((4-cyanopyridin-2-yl)methoxy)-4,1-phenylene))bis(methylene))bis(azanediyl))bis(3-hydroxybutanoic acid)] | 145 nM | 423 nM | 
Cc1c(OCc2cc(OCc3cncc(C#N)c3)c(CN[C@@](C)(CO)C(=O)O)cc2Cl)cccc1-c1cccc(-c2ccc(OCCN[C@@](C)(CO)C(=O)O)cc2)c1C [Example 388, (S)-2-((4-(((4″-(2-(((S)-2-carboxy-1-hydroxypropan-2-yl)amino)ethoxy)-2,2′-dimethyl-[1,1′:3′,1″-terphenyl]-3-yl)oxy)methyl)-5-chloro-2-((5-cyanopyridin-3-yl)methoxy)benzyl)amino)-3-hydroxy-2-methylpropanoic acid] | 225 nM | ≥ 10000 nM | 
Cc1c(COc2cc(OCc3cncc(C#N)c3)c(CN[C@@](C)(CO)C(=O)O)cc2Cl)cccc1-c1cccc(-c2ccc(S(N)(=O)=O)cc2)c1C [Example 564] | 80 nM |  | 0.293 nM
COC1CN(C2CCc3cc(-c4cccc(-c5cccc(COc6cc(OCc7cncc(C#N)c7)c(CN[C@@](C)(CO)C(=O)O)cc6Cl)c5C)c4C)ccc32)C1 (some centres unmarked) [Example 585] | 182 nM |  | 0.098 nM
COc1nc(O[C@@H]2c3cccc(-c4cccc5c4C[C@@H](F)[C@@H]5Oc4nc(OC)c(CNC[C@@H](O)CC(=O)O)cc4Cl)c3C[C@H]2F)c(Cl)cc1CNC[C@@H](O)CC(=O)O [Example 639, (3S,3′S)-4,4′-((((((1R,1′R,2R,2′R)-2,2′-difluoro-2,2′,3,3′-tetrahydro-1H,1′H-[4,4′-biindene]-1,1′-diyl)bis(oxy))bis(5-chloro-2-methoxypyridine-6,3-diyl))bis(methylene))bis(azanediyl))bis(3-hydroxybutanoic acid)] | 942 nM |  | 1.85 nM
COc1nc(O[C@@H]2c3cccc(-c4cccc5c4C[C@H](F)[C@@H]5Oc4nc(OC)c(CNC[C@@H](O)CC(=O)O)cc4Cl)c3C[C@@H]2F)c(Cl)cc1CNC[C@@H](O)CC(=O)O [Example 640, (3S,3′S)-4,4′-((((((1R,1′R,2S,2′S)-2,2′-difluoro-2,2′,3,3′-tetrahydro-1H,1′H-[4,4′-biindene]-1,1′-diyl)bis(oxy))bis(5-chloro-2-methoxypyridine-6,3-diyl))bis(methylene))bis(azanediyl))bis(3-hydroxybutanoic acid)] | ≥ 50000 nM |  | 1.09 nM
O=C(O)C[C@H](O)CNCc1ccc(OC2CCc3c(-c4cccc5c4CCC5Oc4ccc(CNC[C@@H](O)CC(=O)O)cc4)cccc32)cc1 (some centres unmarked) [Example 681] | ≥ 50000 nM |  | 8.91 nM
CS(=O)(=O)c1cncc(COc2nc(O[C@H]3CCc4c(-c5cccc6c5CC[C@@H]6Oc5nc(OCc6cncc(S(C)(=O)=O)c6)c(CN6C[C@@H](O)CC6=O)cc5Cl)cccc43)c(Cl)cc2CNC[C@@H](O)CC(=O)O)c1 [Example 693] | 120 nM |  | 0.585 nM
CS(=O)(=O)c1cncc(COc2nc(O[C@H]3CCc4c(-c5cccc6c5CC[C@@H]6Oc5nc(OCc6cncc(S(C)(=O)=O)c6)c(CNC[C@@H](O)CC(=O)O)cc5Cl)cccc43)c(Cl)cc2CNC[C@@H](O)CC(=O)O)c1 [Example 694] | 96 nM |  | 0.051 nM

The remaining lines, values ahead:

EC50 [1] | AC50 [2] | IC50 [3] | SMILES
151 nM | 223 nM |  | N#Cc1cncc(COc2nc(OCc3cccc(-c4cccc(COc5nc(OCc6cncc(C#N)c6)c(CNC[C@H](O)CC(=O)O)cc5Br)c4Cl)c3Cl)c(Br)cc2CNC[C@H](O)CC(=O)O)c1 [Example 196, (3R,3′R)-4,4′-((((((2,2′-Dichloro-[1,1′-biphenyl]-3,3′-diyl)bis(methylene))bis(oxy))bis(5-bromo-2-((5-cyanopyridin-3-yl)methoxy)pyridine-6,3-diyl))bis(methylene))bis(azanediyl))bis(3-hydroxybutanoic acid)]
114 nM | 83.1 nM |  | Cc1c(COc2cc(OCc3cncc(C#N)c3)c(CNC[C@@H](O)CC(=O)O)cc2Cl)cccc1-c1cccc(-c2ccc3oc(CNC[C@@H](O)CC(=O)O)cc3c2)c1C [Example 210, (S)-4-(((5-(3′-((4-((((S)-3-carboxy-2-hydroxypropyl)amino)methyl)-2-chloro-5-((5-cyanopyridin-3-yl)methoxy)phenoxy)methyl)-2,2′-dimethyl-[1,1′-biphenyl]-3-yl)benzofuran-2-yl)methyl)amino)-3-hydroxybutanoic acid]
1100 nM | 728 nM |  | Cc1c(COc2cc(OCc3cncc(C#N)c3)c(CNC[C@@H](O)CC(=O)O)cc2Cl)cccc1-c1cccc(-c2ccc3cc(CNC[C@@H](O)CC(=O)O)ccc3n2)c1C [Example 398, (S)-4-(((2-(3′-((4-((((S)-3-carboxy-2-hydroxypropyl)amino)methyl)-2-chloro-5-((5-cyanopyridin-3-yl)methoxy)phenoxy)methyl)-2,2′-dimethyl-[1,1′-biphenyl]-3-yl)quinolin-6-yl)methyl)amino)-3-hydroxybutanoic acid]
95 nM |  | 0.203 nM | Cc1c(COc2nc(OCc3cc(C#N)cc(C#N)c3)c(CNC[C@@H](O)CC(=O)O)cc2Br)cccc1-c1cccc(-c2ccc(OCCNC[C@@H](O)CC(=O)O)cc2)c1C [Example 515]
181 nM |  | 0.836 nM | COc1nc(OCc2cccc(-c3cccc(COc4nc(OCc5cncc(C#N)c5)c(CNC[C@@H](O)CC(=O)O)cc4Br)c3C)c2C)c(Br)cc1CNC[C@@H](O)CC(=O)O [Example 586]
95 nM |  | 0.064 nM | Cc1c(-c2ccc(OCCNC[C@@H](O)CC(=O)O)cc2)cccc1-c1cccc2c1CC[C@@H]2Oc1nc(OCc2cncc(C#N)c2)c(CNC[C@@H](O)CC(=O)O)cc1Cl [Example 675]
62 nM |  | 0.064 nM | Cc1c(-c2ccc(OCCNC[C@@H](O)CC(=O)O)cc2)cccc1-c1cccc2c1CC[C@@H]2Oc1nc(OCc2cncc(C#N)c2)c(CNC[C@@H](O)CC(=O)O)cc1Br [Example 676]
35 nM |  | 0.064 nM | Cc1c(-c2ccc(OCCNC[C@@H](O)CC(=O)O)cc2)cccc1-c1cccc2c1CC[C@@H]2Oc1nc(OCc2cc(C#N)cc(C#N)c2)c(CNC[C@@H](O)CC(=O)O)cc1Br [Example 753]
434 nM |  | 0.091 nM | CNC(=O)COc1nc(O[C@H]2CCc3c(-c4cccc(-c5ccc(OCCNC[C@@H](O)CC(=O)O)cc5)c4C)cccc32)c(Br)cc1CNC[C@@H](O)CC(=O)O [Example 754]
6590 nM |  | 1.16 nM | CNC(=O)COc1nc(O[C@H]2CCc3c(-c4cccc(-c5ccc(OCCNC[C@@H](O)CC(=O)O)cc5)c4C)cccc32)ccc1CNC[C@@H](O)CC(=O)O [Example 756]
